Like-named read-outs stand apart in the source and are kept apart here.
How the values were obtained:
[1] = Pharmacokinetic evaluation in beagle dogs; type: in vivo; conditions: male, dog, plasma; for AUC(0-t): read-out: Area under curve AUC0-t; for half-life: read-out: Half-life T1/2 (converted)
Description: Beagle, male, 13 to 14 months old, purchased from Beijing Mas Biotechnology Co., Ltd.
Intravenous injection group: an appropriate amount of the compound to be tested was weighed, and an appropriate amount of DMA:30% Solutol HS-15:Saline=5:5:90 (v/v/v) was added, vortexed, and a solution with a final concentration of 0.5 mg/mL was prepared.
Intragastric administration group: an appropriate amount of the compound to be tested was weighed, and an appropriate amount of DMA:30% Solutol HS-15:Saline=5:5:90 (v/v/v) was added, vortexed, and a solution with a final concentration of 1 mg/mL was prepared.
The beagle dogs were divided into intravenous injection group (3 dogs/group) and intragastric administration group (3 dogs/group) according to the compound to be tested.
Intravenous injection group: dogs were fasted overnight and then administered by intravenous injection (administration dosage was 0.5 mg/kg, and administration volume was 1 mL/kg), and ate 4 hours after administration. […]
Intravenous injection group: about 0.5 mL of blood was collected through jugular vein into EDTA-K2 anticoagulant tubes at 0.083 hour, 0.25 hour, 0.5 hour, 1 hour, 2 hours, 4 hours, 8 hours and 24 hours after administration. […] The collected plasma sample was stored at −40˜−20° C. before analysis.
Intragastric administration group: about 0.5 mL of blood was collected through jugular vein into EDTA-K2 anticoagulant tubes at 0.25 hour, 0.5 hour, 1 hour, 2 hours, 4 hours, 8 hours and 24 hours after administration. […] The collected plasma sample was stored at −40˜−20° C. before analysis.
LC-MS/MS was used to determine the content of the compound to be tested in dog plasma after intravenous injection and intragastric administration of the compound.

[2] = system: human lung cancer NCI-H2122 subcutaneous xenotransplanted tumor; test: Pharmacodynamic evaluation in nude mouse subcutaneous xenotransplanted model of human lung cancer NCI-H2122; type: in vivo, Balb/c nude mouse
Description: The anti-tumor effect and safety of compound 11 of the present invention were evaluated in a Balb/c nude mouse animal model of subcutaneous xenotransplanted NCI-H2122.
BALB/c; nude mice, female, 6-7 weeks old (the age of mice when tumor cells were inoculated), purchased from Jiangsu Jicui Yaokang Biotechnology Co., Ltd.
The solvent control group was given DMSO:castor oil:5% glucose injection=20:10:70 (v/v/v).
AMG-510: an appropriate amount of AMG-510 was weighed, and an appropriate amount of DMSO:castor oil:5% glucose injection=20:10:70 (v/v/v) was added. After the above mixture was fully dissolved, an appropriate amount of 1 M hydrochloric acid was added, vortexed and mixed to prepare a solution with a concentration of 3 mg/mL.
Compound 11: an appropriate amount of compound 11 was weighed, and an appropriate amount of DMSO:castor oil:5% glucose injection=20:10:70 (v/v/v) was added. After the above mixture was fully dissolved, an appropriate amount of 1 M hydrochloric acid was added, vortexed and mixed to prepare a solution with a concentration of 3 mg/mL.
H2122 cells were cultured in 1640 culture medium containing 10% fetal bovine serum and 1% penicillin-streptomycin-amphotericin B solution. H2122 cells in the exponential growth phase were collected and resuspended in matrigel solution (matrigel:PBS=1:1 (V/V)) to a suitable concentration for subcutaneous tumor inoculation in nude mice.
Female Balb/c nude mice were subcutaneously inoculated with about 3.0×10^6H2122 cells on the right sides of their backs. When the average volume of the tumors reaches about 150-200 mm^3, the mice were randomly divided according to the tumor sizes with 6 mice in each group.
• Group 1 (G1), solvent control group; • Group 2 (G2), AMG-510 was given by intragastric administration at a dose of 30 mg/kg; • Group 3 (G3), Example 11 was given by intragastric administration at a dose of 30 mg/kg; • Group 4 (G4), AMG-510 and Example 11 were administered in combination, and the dosages were respectively: AMG-510, 30 mg/kg (QD); Example 11, 30 mg/kg (QD).
After tumor inoculation, routine monitoring included the effects of tumor growth and treatment on the normal behaviors of the animals, specifically the mobility, feeding and drinking, weight gain or loss, eyes, coat and other abnormalities of the experimental animals.
Calculation formulae for a relative tumor volume (RTV), a relative tumor proliferation rate (T/C) and a tumor inhibition percentage (IR) were as follows: • (1) TV (tumor volume)=½×a×b^2, wherein a and b represent the length and width of the tumor respectively; • (2) RTV (relative tumor volume)=Vt/Vo, wherein Vo is the tumor volume measured at the time of administration when grouping (i.e. do), and Vt is the tumor volume at each measurement; • (3) relative tumor proliferation rate T/C (%)=TRTV/CRTV×100%, wherein TRTV is the RTV of the treatment group and CRTV is the RTV of the control group; • (4) Tumor growth inhibition rate TGI(%)=(1−T/C)×100%; wherein, T and C are the relative tumor volumes of the treatment group and the control group at a specific time point. • (5) IR (%)=(1−TWt/TWc)×100%, wherein, TWt is the tumor weight of the treatment group and TWc is the tumor weight of the control group. The anti-tumor evaluation criteria are (cytotoxic drugs): T/C(%)>40% is invalid; T/C(%)≤40%, and after statistical processing, P<0.05 is effective.

[3] = 16 days after administration, 30 mg/kg each agent
[4] = end of the experiment, 30 mg/kg each agent

## COc1cc2nc(C)nc(N[C@H](C)c3cccc(C#N)c3C)c2cc1N1CCC(C)(O)CC1 [Compound 11, (R)-3-(1-((6-(4-hydroxy-4-methylpiperidin-1-yl)-7-methoxy-2-methylquinazolin-4-yl)amino)ethyl)-2-methylbenzonitrile]
[1]; Oral 2 mg/kg vs injection 0.5 mg/kg, read-out: Bioavailability F
  bioavailability: 127%
[1]; Oral 2 mg/kg
  AUC(0-t): 3510 ± 1750 ng·h/mL
  half-life: 4.21 ± 0.943 h
[1]; Oral 2 mg/kg, read-out: Plasma concentration Cmax
  Cmax: 456 ± 149 ng/mL
[1]; iv, injection 0.5 mg/kg
  AUC(0-t): 693 ± 183 ng·h/mL
  half-life: 2.81 ± 0.45 h
[2]; [3]
  Relative tumor volume (x ± S): 4.03 ± 0.67
  TGI %: 20.7%
[2]; Day 0 after administration, 30 mg/kg each agent, intragastric
  Tumor volume (x ± S): 199 ± 18 mm^3
[2]; Day 3 after administration, 30 mg/kg each agent, intragastric
  Tumor volume (x ± S): 329 ± 36 mm^3
[2]; Day 7 after administration, 30 mg/kg each agent, intragastric
  Tumor volume (x ± S): 460 ± 53 mm^3
[2]; Day 10 after administration, 30 mg/kg each agent, intragastric
  Tumor volume (x ± S): 551 ± 60 mm^3
[2]; Day 14 after administration, 30 mg/kg each agent, intragastric
  Tumor volume (x ± S): 704 ± 88 mm^3
[2]; Day 16 after administration, 30 mg/kg each agent, intragastric
  Tumor volume (x ± S): 757 ± 90 mm^3
[2]; Table 11, 16 days after administration, 30 mg/kg each agent, in mm³
  Tumor volume (x ± S): 757 ± 90
[2]; [4]
  Inhibition rate of tumor weight (%): 16.8%
  Tumor weight (g) (x ± S): 0.6283 ± 0.0663 g
[2]; under the combination with AMG-510, KRAS-G12C inhibitor non-sensitive cell line NCI-H2122
  anti-tumor activity (conclusion in words): good anti-tumor activity

— US20240382475A1, “Quinazoline Derivative, Or Preparation Method Therefor And Use Thereof” (Zhejiang Hisun Pharmaceutical Co., Ltd., priority 2021, published 2024)
